US10214502B2, “Method of inhibiting apolipoprotein-E expression while increasing expression of at least one of LDL-receptor protein or AbcA1 protein comprising administering a small compound” (California State University, Fresno, priority 2016, dated 2019)
Entries after “also recorded” stand apart in the source; their conditions may differ.

Legend:
[1] = system: apoE3; experiment: ELISA of apoE3 levels in conditioned media of compound-treated mouse cortical astrocyte cells; type: cell-based; details: 10 μM compound, 24 hours, normalized to cell protein, relative to DMSO treated cells
Description: ApoE inhibition can be readily determined by any one of several assays and techniques known to those of ordinary skill in the art, including the enzyme-linked immunosorbant assay (ELISA). In the experimental results shown in Table 2 and FIG. 5, the ELISA assay was carried out on cortical astrocyte cells from mice. Astrocyte cells produce apoE, LDLR and AbcA1 proteins.
The experiments involved treating mouse cortical astrocyte cells with the claimed compounds at 10 μM concentration for an incubation time of 24 hrs. DMSO solvent was used as a negative control, because the compounds were dissolved in DMSO when applied to the cells.
The ELISA technique involves immobilizing an apoE-specific capture antibody to a 96-well plate, addition of sample (conditioned medium from mouse cortical astrocyte cells treated with the compound for 24 hours), and detection of the bound apoE using a second apoE-specific biotinylated antibody and streptavidin-HRP.
The Mabtech ELISA kit detects the presence of the three apoE isoforms: apoE2, apoE3, and apoE4.
To obtain the data shown in Table 2 and FIG. 5, the mouse cortical astrocyte cells were maintained in DMEM medium (Invitrogen) supplemented with 10 mM HEPES, 1 mM sodium pyruvate, 4.5 g/L glucose, 1% penicillin/streptomycin, and 10% fetal bovine growth serum (Invitrogen) at 37° C., with 5% CO2.
The cells (6×10^4 cells/24-well plate) were grown for 1 day in RPMI, followed by a 24 hour equilibration in serum-free Opti-MEM (Life Technologies). Treatments were carried out in triplicate with […] of fresh Opti-MEM containing 10 μM of compound or vehicle (0.1% DMSO) for 24 hours. […] ApoE concentration in the sample was calculated based on a standard curve derived using known amounts of purified apoE (from Biodesign).
The protein levels in the cells in the 24-well plates were measured using BCA Protein Assay Kit (from Pierce) and used to normalize the data. […] Sample apoE3 concentrations were represented relative to the DMSO treated cells.
The bars in FIG. 5 reflect the respective mean level apoE3 in the media for each compound with an indication of one […].

[2] = system: LDLR; experiment: SDS-PAGE/Western blot of LDLR expression in E3 astrocyte cells; type: cell-based, mouse; details: 10 μM, 24 hrs, Western blot, FIGS. 6 and 7
Description: Experiments were set up to test whether the claimed compounds increase LDLR expression in cortical astrocyte cells. The experiments involved treating mouse cortical astrocyte cells (E3 astrocyte cells) with the claimed compounds at 10 μM concentration for an incubation time of 24 hrs. DMSO solvent was used as a negative control, because the compounds were dissolved in DMSO when applied to the cells.
(§1) Western blot protocol and analysis was used to determine the LDLR levels in the E3 astrocyte cells. The western blot, otherwise known as a protein immunoblot, is a widely used analytical technique used to detect specific proteins in a cell culture or tissue sample. It uses gel electrophoresis to separate proteins by 3-D structure or denatured proteins by the length of the polypeptide. The proteins are then transferred to a membrane (typically nitrocellulose or PVDF), where they are stained with antibodies specific to the target protein. […] FIGS. 6 and 7 show gel images showing the effects the claimed compounds have on the target proteins. The protein bands show the presence and amount of each target protein present in the media from treated cells (compound numbers shown in the column headers).
(§2) In this case, after the 24-hour culture period, the treated cell media from cells treated with each respective compound were run by electrophoresis on polyacrylamide gel containing sodium dodecyl sulfate (SDS). The proteins from the SDS-PAGE process were then transferred to a nitrocellulose […] and stained.
(§3) FIGS. 6 and 7 show the presence of the following proteins in mouse E3 astrocyte cells: AbcA1, LDLR, ApoE3, and GAPDH. The GAPDH protein serves as the loading control protein for the western blot analysis. For each of the claimed compounds, FIGS. 6 and 7 show three samples run to determine the presence and amount of each indicated protein. The three samples for each treatment compound are indicated by the line under the compound number—the line stretches across three columns of protein bands.
(§4) The E3 astrocyte cells (1.6×10^4 cells/96-well plate) were grown for 1 day in RPMI, followed by a 24 hour equilibration in serum-free Opti-MEM (Life Technologies). Treatments were carried out in triplicate with […] of fresh Opti-MEM containing 10 μM of compound or vehicle (0.1% DMSO) for 24 hours. After the incubation time, the cellular media was collected as samples.
(§5) The collected samples were prepared for SDS-PAGE and western blot analysis by centrifuging and then extracting the protein by TCA-precipitation. The extracted protein was then resuspended in a Tris buffer.
(§6) After incubation and collection, the samples were run on a SDS-polyacrylamide gel (10% SDS). The SDS-polyacrylamide gel comprises the following:
(§7) Each sample was prepared to run on the SDS-polyacrylamide gel. About 20 μL of each sample was prepared to be run in the gel. The samples were prepared comprising the following:
(§8) The SDS-PAGE process was run with SDS-PAGE running buffer (Tris base, glycine, and 10% SDS) at 150 V until the dye front reached the bottom of the gel.
(§9) For the western blot portion of the analysis, the separated protein bands in the gel are then transferred to a nitrocellulose membrane by methods well known in the art. Following the western blot transfer, the blot is rinsed several times with dH2O to remove the salts. After blocking unreacted sites on the nitrocellulose membrane, all protein bands are stained with 0.5% Ponceau S (0.5 g Ponceau S, 1 ml Glacial HAc, 99 ml dH2O) and the target protein antibody.
(§10) The antibodies used for staining AbcA1 were obtained from Novus (NB100-2068). The antibodies used for staining LDLR were obtained from MBL International (JM-3839). The antibodies used for staining intracellular apoE were obtained from Meridian Life Science (K74180B). The antibodies used for staining GAPDH were obtained from Santa Cruz (sc-25778).

[3] = system: AbcA1; experiment: SDS-PAGE/Western blot of AbcA1 expression in E3 astrocyte cells; type: cell-based, mouse; details: 10 μM, 24 hrs, Western blot, FIGS. 6 and 7
Text: as §1, §2, §3
AbcA1 protein plays a key role in regulating cholesterol in biological systems and therefore affects amyloid beta plaque formation. The goal of the biological screen (results shown in FIGS. 6 and 7) was to find compounds that prevent amyloid beta (Aβ) plaque formation, one of the deleterious causes of Alzheimer's Disease.
as §4, §5, §6, §7, §8, §9, §10

[4] = system: intracellular apoE; experiment: SDS-PAGE/Western blot of intracellular apoE levels in E3 astrocyte cells; type: cell-based, mouse; details: 10 μM, 24 hrs, Western blot, FIGS. 6 and 7
Text: as §1, §2
FIGS. 6 and 7 show the presence of the following proteins in mouse E3 astrocyte cells: AbcA1, LDLR, ApoE3, and GAPDH. […]
Intracellular apoE levels as measured in FIGS. 6 and 7 are the amounts of apoE inside of cells. […]

Row | Structure (SMILES) | ApoE3 Levels in Cell Media, Average of Three Tests [1] | ApoE3 Levels in Cell Media, Test 1 [1] | ApoE3 Levels in Cell Media, Test 2 [1] | ApoE3 Levels in Cell Media, Test 3 [1] | LDLR expression (amount of LDLR protein) compared to the DMSO control [2] | AbcA1 expression compared to the DMSO control [3] | intracellular apoE expression/levels compared to the DMSO control [4]
1 | CCCCN(CCCC)S(=O)(=O)c1cccc2ccccc12 [Compound 127, naphthalene-1-sulfonic acid dibutylamide] | 75.73 % of the DMSO control | 75.36 % of the DMSO control | 78.18 % of the DMSO control | 73.66 % of the DMSO control | increased | increases | decreasing
2 | CCN(CC)Cc1ccc2ccccc2c1 [Compound 140] | 90.9673 % of the DMSO control | 91.46 % of the DMSO control | 97.9104 % of the DMSO control | 83.54 % of the DMSO control | increased; also recorded: increasing LDLR expression slightly | increases AbcA1 expression significantly; also recorded: increase | –
